Source: patent publication US10023593B2, “ALK kinase inhibitor, and preparation method and uses thereof” (BEIJING PEARL BIOTECHNOLOGY LIMITED LIABILITY COMPANY, priority 2014, dated 2018)

Tested on: NCI-H2228 cell line
Assay: CellTiter-Glo cell proliferation inhibition on NCI-H2228 cell line
Type: cell-based
Details: Homo sapiens, NCI-H2228, 96 h, NCI-H2228 cells, 5000 cells/well, 4 days drug treatment
Protocol: 3. Cell Proliferation Inhibitory Activities of the Compounds of the Present Invention on NCI-H2228 Cell Line
? experimental method ? CellTiter-Glo® Luminescent Cell Viability Assay kit from Promega company was used to detect cell proliferation inhibitory activities of the compounds on NCI-H2228 cell line.
? instrument ? Envision 2104 plate reader from PerKinElmer company; Vi-Cell XR cell counter from Beckman Counter company; MCO-18AIC CO2 incubator from SANYO company.
? experiment material ? CellTiter-Glo® Luminescent Cell Viability Assay Kit (Promega company, catalog No. G7573); NCI-H2228 cell line (ATCC, catalog No. CRL-5935); RPMI-1640 medium (HyClone company, catalog No. SH30809.01B); fetal bovine serum (FBS) (Gibco company, catalog No. 10099-141); trypsin (Trypsin) (Gibco company, catalog No. 25200-072); PBS (HyClone company, catalog No. SH30256.01B); 96 wells cell culture plate (Corning company, catalog No. 3610); DMSO (AMRESCO company, catalog No. 0231); 96 wells plates (for diluting compounds) (CITOTEST company, catalog No. Ref36020096D);
? experimental condition ? NCI-H2228 cells in exponential growth phase were collected and treated with trypsin (Trypsin), and viable cells were counted by Vi-Cell XR cell counter. Cell suspension was adjusted to 62500 cells/ml with culture medium (RPMI-1640+10% FBS). 80 μl cell suspension was added into each well of 96 wells cell culture plate so that the final cell number of NCI-H2228 cells was 5000 cells/well. The cells were cultivated in an incubator with an atmosphere of 37° C., 5% CO2 and 95% humidity for 2 hours and then each well was added with 20 μl compounds in RPMI-1640 medium solution (the final concentration of DMSO was 0.5%). 4 days after drug treatment, each well was added with 50 μl CellTiter-Glo solution which was previously thawed and equilibrated to room temperature, and mixed for 2 minutes with microplate shaker. After placing at room temperature for 10 minutes, luminescence value was measured by PerkinElmer Envision 2104 plate reader and the data was analyzed.
? tested samples ? Compounds of the examples.
? data analysis ? Luminescence value of DMSO solvent control (Vvehicle control, which is the mean luminescence value from DMSO solvent control group)
Tested luminescence value (Vsample, which is the luminescence value from given concentration of compounds group) Inhibition rate (%)=(1−Vsample/Vvehicle control)×100
? data processing ? IC50 of compounds was calculated by using XLfit program in Excel.

| Structure (SMILES) | IC50 [nM] |
| --- | --- |
| Cc1cc(Nc2ncc(Cl)c(Nc3cn(C)nc3S(=O)(=O)CC(C)C)n2)c(OC2CC2)cc1C1CCCN(C)C1 (stereo not drawn) [Final product 61] | 85 |
| Cc1cc(Nc2ncc(Cl)c(Nc3cn(C)nc3S(=O)(=O)C(C)C)n2)c(OC(C)C)cc1C1CCCN(C)C1 (stereo not drawn) [Final product 62] | 122 |
| Cc1cc(Nc2ncc(Cl)c(Nc3cn(C)nc3S(=O)(=O)C(C)C)n2)c(OC2CCC2)cc1C1CCN(C)CC1 [Final product 63] | 31 |
| COc1cc(C2CCN(C)CC2)c(C)cc1Nc1ncc(Cl)c(Nc2cn(C)nc2S(=O)(=O)C(C)C)n1 [Final product 64] | 31 |
| CCOc1cc(C2CCN(C)CC2)c(C)cc1Nc1ncc(Cl)c(Nc2cn(C)nc2S(=O)(=O)C(C)C)n1 [Final product 65] | 38 |
| CCCOc1cc(C2CCN(C)CC2)c(C)cc1Nc1ncc(Cl)c(Nc2cn(C)nc2S(=O)(=O)C(C)C)n1 [Final product 66] | 59 |
| CC(C)Oc1cc(C2CCN(C)CC2)c(C2CC2)cc1Nc1ncc(Cl)c(Nc2cn(C)nc2S(=O)(=O)C(C)C)n1 [Final product 68] | 150 |
| CCCc1cc(Nc2ncc(Cl)c(Nc3cn(C)nc3S(=O)(=O)C(C)C)n2)c(OC(C)C)cc1C1CCN(C)CC1 [Final product 69] | 178 |
| Cc1cc(Nc2ncc(F)c(Nc3cn(C)nc3S(=O)(=O)C(C)C)n2)c(OC(C)C)cc1C1CCN(C)CC1 [Final product 71] | 199 |
| Cc1cc(Nc2ncc(C)c(Nc3cn(C)nc3S(=O)(=O)C(C)C)n2)c(OC(C)C)cc1C1CCN(C)CC1 [Final product 73] | 151 |
| Cc1cc(Nc2ncc(Cl)c(Nc3cn(C)nc3S(=O)(=O)C(C)C)n2)c(OC2CC2)cc1C1CC2COCC(C1)N2C (stereo not drawn) [Final product 74] | 19 |
| Cc1cc(Nc2ncc(Cl)c(Nc3cn(C)nc3S(=O)(=O)C(C)C)n2)c(OC2CC2)cc1CN1CCN(C)CC1 [Final product 75] | 109 |
| Cc1cc(Nc2ncc(Cl)c(Nc3cn(C)nc3S(=O)(=O)C(C)C)n2)c(OC2CC2)cc1OC1CN(C)C1 [Final product 76] | 215 |
| COCC1CC(c2cc(OC(C)C)c(Nc3ncc(Cl)c(Nc4cn(C)nc4S(=O)(=O)C(C)C)n3)cc2C)CCN1C (stereo not drawn) [Final product 78] | 128 |
| COCC(C)(C)N1CCC(c2cc(OC3CC3)c(Nc3ncc(Cl)c(Nc4cn(C)nc4S(=O)(=O)C(C)C)n3)cc2C)CC1 [Final product 84] | 46 |
| COCC(C)(C)N1CCC(c2cc(OC(C)C)c(Nc3ncc(Cl)c(Nc4cn(C)nc4S(=O)(=O)C(C)C)n3)cc2C)CC1 [Final product 85] | 77 |
| Cc1cc(Nc2ncc(Cl)c(Nc3cn(C)nc3S(=O)(=O)C3CCC3)n2)c(OC(C)C)cc1C1CCN(C)CC1 [Final product 86] | 120 |
| Cc1cc(Nc2ncc(Cl)c(Nc3cn(C)nc3S(=O)(=O)C(C)C)n2)c(OC2CC2)cc1C1CCN(C)CC1Cl (stereo not drawn) [Final product 89] | 108 |
| Cc1cc(Nc2ncc(Cl)c(Nc3cn(C)nc3S(=O)(=O)CC(C)C)n2)c(OC2CC2)cc1C1CCN(C)CC1C (stereo not drawn) [Final product 91] | 75 |
| Cc1cc(Nc2ncc(Cl)c(Nc3cn(C)nc3S(=O)(=O)CC(C)C)n2)c(OC2CC2)cc1C1CCN(C)C(C)C1 (stereo not drawn) [Final product 93] | 67 |
| Cc1cc(Nc2ncc(Cl)c(Nc3cn(C)nc3S(=O)(=O)C(C)C)n2)c(OC(C)C)cc1C1CCN(C)C(C)C1 (stereo not drawn) [Final product 94] | 79 |
| Cc1cc(Nc2ncc(Cl)c(Nc3cn(C)nc3S(=O)(=O)CC(C)C)n2)c(OC2CC2)cc1C1CC(C)N(C)C(C)C1 (stereo not drawn) [Final product 96] | 85 |
| Cc1cc(Nc2ncc(Cl)c(Nc3cn(C)nc3S(=O)(=O)C(C)C)n2)c(OC(C)C)cc1C1CC(C)(C)N(C)C(C)(C)C1 [Final product 98] | 240 |

| Structure (SMILES) | IC50 [nM] |
| --- | --- |
| Cc1cc(Nc2ncc(Cl)c(Nc3cn(C)nc3S(=O)(=O)C(C)C)n2)c(OC2CC2)cc1C1CCN(C)CC1(C)C (stereo not drawn) [Final product 99] | 58 |
| Cc1cc(Nc2ncc(Cl)c(Nc3cn(C)nc3S(=O)(=O)C(C)C)n2)c(OC2CC2)cc1C1CCN(C)C(C(=O)N(C)C)C1 (stereo not drawn) [Final product 101] | 26 |
| Cc1cc(Nc2ncc(Cl)c(Nc3cn(C)nc3S(=O)(=O)C(C)C)n2)c(OC2CC2)cc1C1CCCCN1C (stereo not drawn) [Final product 102] | 103 |
| Cc1cc(Nc2ncc(Cl)c(Nc3cn(C)nc3S(=O)(=O)CC(C)C)n2)c(OC2CC2)cc1C1CCN(C)C(=O)C1 (stereo not drawn) [Final product 104] | 70 |
| Cc1cc(Nc2ncc(Cl)c(Nc3cn(C)nc3S(=O)(=O)C(C)C)n2)c(OC2CC2)cc1C1CCN2CCCC2C1 (stereo not drawn) [Final product 105] | 63 |
| Cc1cc(Nc2ncc(Cl)c(Nc3cn(C)nc3S(=O)(=O)C(C)C)n2)c(OC2CC2)cc1C1CCCN(C)CC1 (stereo not drawn) [Final product 106] | 34 |
| Cc1cc(Nc2ncc(Cl)c(Nc3cn(C)nc3S(=O)(=O)C(C)C)n2)c(OC2CC2)cc1C1CC2COCC(C1)N2 (stereo not drawn) [Final product 108] | 33 |
| Cc1cc(Nc2ncc(Cl)c(Nc3cn(C)nc3S(=O)(=O)C(C)C)n2)c(OC2CC2)cc1C1CC2CN(C)CC(C1)O2 (stereo not drawn) [Final product 109] | 109 |
| Cc1cc(Nc2ncc(Cl)c(Nc3cn(C)nc3S(=O)(=O)C(C)C)n2)c(OC2CC2)cc1C1CCS(=O)(=O)CC1 [Final product 110] | 97 |
| CC(C)S(=O)(=O)c1nn(C)cc1Nc1nc(Nc2cc3c(cc2OC2CC2)CN(C)CC3)ncc1Cl [Final product 112] | 211 |
| CCOc1cc(C2CCN(CC)CC2)c(C)cc1Nc1ncc(Cl)c(Nc2cn(C)nc2S(=O)(=O)C(C)C)n1 [Final product 116] | 34 |
| CCN1CCC(c2cc(OC3CC3)c(Nc3ncc(Cl)c(Nc4cn(C)nc4S(=O)(=O)CC(C)C)n3)cc2C)CC1 [Final product 117] | 158 |
| CCN1CCCC(c2cc(OC(C)C)c(Nc3ncc(Cl)c(Nc4cn(C)nc4S(=O)(=O)C(C)C)n3)cc2C)C1 (stereo not drawn) [Final product 119] | 193 |
| CCN1CCCC(c2cc(OC3CC3)c(Nc3ncc(Cl)c(Nc4cn(C)nc4S(=O)(=O)C(C)C)n3)cc2C)C1 (stereo not drawn) [Final product 120] | 93 |
| CCN1CCCC(c2cc(OC3CC3)c(Nc3ncc(Cl)c(Nc4cn(C)nc4S(=O)(=O)CC(C)C)n3)cc2C)C1 (stereo not drawn) [Final product 121] | 168 |
| CCN1CCC(c2cc(OC3CCC3)c(Nc3ncc(Cl)c(Nc4cn(C)nc4S(=O)(=O)C(C)C)n3)cc2C)CC1 [Final product 122] | 79 |
| COc1cc(C2CCN(C(C)C)CC2)c(C)cc1Nc1ncc(Cl)c(Nc2cn(C)nc2S(=O)(=O)C(C)C)n1 [Final product 124] | 86 |
| CCOc1cc(C2CCN(C(C)C)CC2)c(C)cc1Nc1ncc(Cl)c(Nc2cn(C)nc2S(=O)(=O)C(C)C)n1 [Final product 125] | 47 |
| Cc1cc(Nc2ncc(Cl)c(Nc3cn(C)nc3S(=O)(=O)C(C)C)n2)c(OC(C)C)cc1C1CCCN(C(C)C)C1 (stereo not drawn) [Final product 128] | 128 |
| Cc1cc(Nc2ncc(Cl)c(Nc3cn(C)nc3S(=O)(=O)C(C)C)n2)c(OC2CC2)cc1C1CCCN(C(C)C)C1 (stereo not drawn) [Final product 129] | 32 |
| Cc1cc(Nc2ncc(Cl)c(Nc3cn(C)nc3S(=O)(=O)CC(C)C)n2)c(OC2CC2)cc1C1CCCN(C(C)C)C1 (stereo not drawn) [Final product 130] | 28 |
| Cc1cc(Nc2ncc(Cl)c(Nc3cn(C)nc3S(=O)(=O)C(C)C)n2)c(OC2CCC2)cc1C1CCN(C(C)C)CC1 [Final product 131] | 52 |
